# Patent publication US9974767B2, “Statins in the treatment of muscular dystrophies and myopathies” (University of Washington, priority 2014, dated 2018)
# “Also recorded” adds a separate entry of the source.
# Key:
# Type in all cases: in vivo, mouse
# WT mice [1] = assay: Plasma CK activity in wild type mice; settings: 8 months treatment, vs untreated WT
# Description: The activity levels of the mice were measured by voluntary running wheel activity over 2 days. […] Therefore, since CK was measured after the running wheel activity, the dramatic reduction in CK levels in Simvastatin-treated mdx mice is not related to exercise levels. […] Therefore, statins cause a robust reduction in CK release from dystrophic muscle both in long-term treated mice starting from a young age (3 weeks to 8 months), and in old mice (12 months) over a 2 month period.
# (§1) DMD is a chronic, progressively degenerative disease and consequently potential treatments need to be effective over many years. […] The calculated dose given to the mice was between 5-10 mg/kg/day. This would equate to 20-40 mg/day for a 10 yea old DMD boy weighing 30 kg, based on mouse to human equivalence calculations, which is within the recommended dose range of statins for children.
# Male dystrophin-deficient (mdx) and wild type (WT) mice on the C57BL/10ScSn background were used for all experiments, which were approved by the Institutional Animal Care and Use Committee (IACUC) at the University of Washington.
# Simvastatin powder (TCI America) was formulated as a treatment in two ways; in the drinking water and in the food. […]
# Plasma CK was evaluated as a measure of whole body muscle damage. […]
# WT mice [2] = assay: H&E histology of TA muscle, wild type mice; settings: 8 months, 5-10 mg/kg/day
# Description: The dose used (5-10 mg/kg/day) is equivalent to a low to moderate dose in humans.
# as §1
# Muscles were imbedded in O.C.T compound and frozen in isopentane cooled in liquid nitrogen. Cryosections (10 μm thick) were placed on a glass side. Sections were fixed with either ice-cold methanol or 2% paraformaldehyde for 5 to 10 min. Some sections were stained with Haemotoxylin and Eosin (H & E) using standard procedures. For immunofluorescence, sections were incubated in blocking buffer (0.8% BSA and 1% fish gelatin in PBS) for 45 min. […] For fluorescence quantification (CD68, fibronectin and myosin heavy chains), images were converted to grayscale in Image J and a threshold applied to calculate the area of fluorescence as a percent of the total area of the section. Fibers with central nuclei were expressed as a percent of total fibers with detectable nuclei (ie. both central and peripheral).
# mdx mice = assay: TA muscle function in situ (specific force, fatigue, recovery)
# Description: Hindlimb (TA) muscle physiology was measured in situ, which has the advantages of direct nerve stimulation and intact blood circulation. […] We also evaluated muscle fatigue resistance and recovery from fatigue, because this is a major cause of weakness in dystrophic muscle. TA muscle fatigue was assessed after 1 min and 2 min of repetitive tetanic contractions (2 sec apart). […] Recovery from muscle fatigue was measured every 2 min up to 10 min post fatigue.
# Muscle degeneration and loss of function in DMD begins very early in the disease and progressively worsens over time. Consequently, useful therapeutic agents must be effective when administered at various stages of the disease. […] Hindlimb (TA) muscle physiology was measured in situ. This method has the advantages of direct nerve stimulation and intact blood circulation, which provides an essentially in vivo approach for measuring muscle function. Remarkably, specific muscle force increased by 40% (P<0.001) for mdx Sim compared to mdx Con mice, a dramatic increase for a pharmacological agent.
# In addition to the loss of specific force, increased muscle fatigue and slowed force recovery are also significant causes of muscle weakness in DMD. Muscle fatigue in TA was measured during repetitive tetanic contractions (every 2 seconds) for a total of 2 minutes. For mdx Con mice, force declined rapidly during the early part of the fatigue and then much less steeply for the remainder of the contractions (FIG. 12A). In contrast, the force decline for mdx Sim was very similar to the WT groups, with a slow force drop over the first minute and then a greater decline over the last minute (see FIG. 12B). […] Recovery from fatigue was measured up to 10 min post fatigue (FIG. 12C). […] The cellular mechanisms of muscle fatigue are complex, however ROS are known to be an important cause of force loss during muscle fatigue.
# Tibialis anterior (TA) muscle function was measured in situ. Mice were anaesthetized with an intraperitoneal injection of Avertin (625 mg/kg) and placed on a heated metal platform (37° C.). The distal TA tendon was dissected free and sutured to the lever arm of the force and length control system (305C-LR, Aurora Scientific). Muscle contraction was provided by stimulation of the Sciatic nerve using bipolar electrodes, which was kept moist during the experiment with PBS. The knee bone was firmly anchored to the platform via a steel pin. A length-force curve was generated by stimulating the muscle at 120 Hz (200 ms duration), every 90 sec, from short to long muscle lengths. […] Fatigue recovery was measured every 2 min up to 10 min post-fatigue. […] Membranes were incubated with enhanced chemiluminescence (ECL) reagent (Amersham) and bands were detected by the FluorChem M, imaging system (Protein Simple).
smiles,measurement,setting,value
"CCC(C)(C)C(=O)O[C@H]1C[C@@H](C)C=C2C=C[C@H](C)[C@H](CC[C@@H]3C[C@@H](O)CC(=O)O3)[C@H]21 [Simvastatin, simvastatin]",CK levels of WT mice,WT mice [1],no difference; also recorded: no effect
same,CK levels of WT mice,WT mice [1]; listed as simvastatin,no effect
same,"muscle histology of WT mice (damage, inflammation)",WT mice [2],no effect; also recorded: no evidence of muscle damage or inflammation
same,"muscle histology of WT mice (damage, inflammation)",WT mice [2]; listed as simvastatin,no effect
same,force recovery at 2 min post fatigue,mdx mice; mdx Sim,"80.9 % of the initial, pre-fatigue force"
same,force recovery at 10 min post fatigue,mdx mice; mdx Sim,86.9%
same,increase of hindlimb (TA) specific muscle force,"mdx mice; mdx Sim vs mdx Con, treatment from 3 to 6 months of age",40%
same,TA force after 1 minute of fatigue,"mdx mice; mdx Sim, tetanic contractions every 2 sec, mdx Con 53%",68 % of initial force
